From patent publication US11649268B2, “Fibronectin-binding peptides for use in tumor or fibrosis diagnosis and therapy” (priority 2016, dated 2023)
Entries after “also recorded” stand apart in the source; their conditions may differ. Read-outs that look alike come from different tables or passages of the source. Where a SMILES comes first, the peptide text is derived from it. Primed or numbered codes have the meaning given here. Where no end group is shown, it is not given here. The star is where a group is joined. X1 = O=C(O)CN1CCN(CC(=O)O)CCN(C(CCC(=O)NCCN2C(=O)CC(*)C2=O)C(=O)O)CC1; NODAGA′ = NODAGA chelator (maleimide-conjugated) for radiolabelling; Alexa 488 = Alexa Fluor 488 fluorescent dye

Tests used:
[1] = Protocol: To assess in vitro plasma stability 12 MBq ^111In-[FnBPA5-NODAGA] and ^111In-[scraFnBPA5-NODAGA] were incubated with 400 μL human blood plasma at 37° C. At different time points (0, 0.25, 0.5, 1, 2, 48 and 72 hours) 40 μL of plasma was taken out and precipitated by the addition of 200 μL EtOH, acetonitrile, 0.1% TFA.
PC-3 xenografts [2] = tested on: PC-3 xenografts
Protocol: (§1) PC-3 cells (human prostate carcinoma cell line, ACC-465, DSMZ, Braunschweig, Germany) were cultured in Roswell Park Memorial Institute 1640 medium (Amimed, Bioconcept, Switzerland). Cells were cultured as monolayers at 37° C. in a humidified atmosphere containing 5% CO2.
(§2) In vivo experiments were approved by the local veterinarian department and conducted in accordance with the Swiss law for animal protection. The 3-5 weeks-old female CD1 nude mice were purchased from Charles River (Germany). After 5-7 days acclimatisation period, the tumor cells were subcutaneously inoculated in both shoulders of the mice (3*106-1*107 cells in 100-150 μL PBS per side). Experiments were performed 3-4 weeks after inoculation.
SPECT/CT experiments were performed using a 4-head multiplexing multipinhole camera (NanoSPECT/CTplus, Bioscan Inc., Washington D.C., USA). CT scans were performed with a tube voltage of 45 kV and a tube current of […]. SPECT scans at 24, 72 and 96 hours post injection were obtained with an acquisition time of 20-90 sec. per view resulting in a total scanning time of 20-45 min per mouse.
The distribution of ^111In-radiolabeled FnBPA5 peptide injected into the tail vein of a living mouse was monitored by means of SPECT/CT for a period of 96 hours. […] (2.4 nmol, 100 μL PBS) into the tail vein. […] SPECT images were reconstructed using HiSPECT software (Scivis GmbH, Goettingen, Germany). The images were reconstituted and processed with InVivoScope® software (BioscanInc., Washington D.C., USA) and zoom in videos were generated using Adobe Flash.
To visualize additional binding of the tracer to tissues throughout the body, the kidneys were subsequently removed from the sacrificed mice and the scan was repeated.

in vivo = conditions: female, CD1 nude, mouse, iv, 150 kBq, total radioactivity
Protocol: as §1, §2
(§3) The tissue-specific peptide pharmacokinetics, particularly in cancer stroma, were assessed in groups of 4 PC-3-bearing mice that were injected with approximately 150 kBq ^111In-FnBPA5 respectively ^111In-scraFnBPA5 (2.4 nmol/[…] PBS) into the tail vein and biodistribution of peptides was analyzed at different time points (1, 4, 24 and 96 hours post injection (p.i. and after sacrification)) by means of percentage of injected activity per gram tissue (% IA/g).

PC-3 xenografts [3] = experiment: In vivo blocking study with pre-injected unlabeled FnBPA5; design: species or system mouse; conditions: for effect of pre-injection of unlabeled FnBPA5 on accumulation: approximately 10-fold excess unlabeled FnBPA5, 4 hour post-injection
Protocol: (A) Biodistribution of FnBPA5 in PC-3 bearing mice was monitored at different time points in various organs. […] (C) Blocking studies were performed and uptake was analyzed 4 hour post-injection.
as §3

soluble plasma Fn = experiment: Fluorescence anisotropy titration (fluorescence polarization); assay type: binding, human; conditions: 100 nM Alexa-488 peptide in PBS, Fn 0 to 1.4 μM, 20° C.; read-out: dissociation constant Kd to soluble plasma Fn
Protocol: The binding affinities of Fn to FnBPA5 were determined in three independent measurements by anisotropy titrations in a Cary Eclipse Fluorescence Spectrophotometer (Agilent Technologies) equipped with automated polarizers. FnBPA5 and its scrambled derivative were synthesized with an N-terminal Alexa-488 dye. The anisotropy of 100 nM Alexa-488 labelled peptide was measured in PBS at Fn concentrations ranging from 0 to 1.4 μM. Excitation and emission were at λex 480 nm and λem 520 nm respectively with both slit 10 nm, 20° C., 5 s signal acquisition and g=1.4. The Kd values were determined by fitting the data to a one-site-binding model using Origin 7 (OriginLab Northampton, Mass., USA).
With higher Fn concentration an increasing amount of peptide is bound to Fn leading to a shift in fluorescence anisotropy.

[4] = tested on: manually pulled relaxed Fn fibers (fibrillar Fn); experiment: Manually pulled Fn fiber binding assay (confocal microscopy); design: species or system human; conditions: for binding to manually pulled Fn fibers (peptide signal): confocal microscopy, peptide signal vs Fn-Cy5
From the text: Manually pulled Fn fibers were used as a model system for fibrillar Fn as described previously (W. C. Little, M. L. Smith, U. Ebneter, and V. Vogel, “Assay to mechanically tune and optically probe fibrillar fibronectin conformations from fully relaxed to breakage,” Matrix Biology, vol. 27, no. 5, pp. 451-461, June 2008). Fibers containing 5% of photolabeled Fn-Cy5 were deposited onto a stretchable silicone sheet, relaxed to half of their original length, corresponding to a total 7% molecular strain and after a blocking step with 4% bovine serum albumin in PBS, they were incubated with different concentrations of Alexa488 fluorescently labeled FnBPA5 to obtain a binding curve.
Manually pulled Fn fiber samples were imaged with an Olympus FV1000 confocal microscope using a 40× water immersion objective with a numerical aperture of 0.9. Alexa488-FnBPA5 and Fn-Cy5 channels were imaged with a 512×512 pixel resolution and photomultiplier tube voltage and laser powers were kept constant within an experiment.
Images were analyzed using Fiji-ImageJ and Matlab (MathWorks, Natick, Mass., USA). […] Dark current values were subtracted from images and pixels with intensities below a cutoff threshold and at saturation were excluded from analysis. Approximately 10 fibers were imaged per experimental condition and each of these conditions was done in triplicate. […] Data points were fit using the Hill model assuming non-cooperative binding (using the below equation) and plot using Origin.
To assess binding constant of Alexa488-FnBPA5 and of its scrambled analogue to Fn fibers a fiber stretch assay as described above and before (Little et al., Matrix Biology, vol. 27, no. 5, pp. 451-461, June 2008) was used. Fn fibers are manually pulled from a Fn solution containing 5% fluorophore labeled Fn and deposited onto a silicone membrane. Silicone membranes can then be stretched or relaxed to desired mechanical strain state.
Peptide fluorescence intensity normalized against the Cy5-intensity from the Fn-fibers for different peptide concentrations was assessed. Intensity ratio of 10 μM FnBPA5-488 was defined as saturated and all other intensity ratios were normalized with this factor.

[5] = tested on: fibrillar Fn in fibroblast ECM; experiment: Binding to fibrillar Fn in fibroblast-assembled ECM (colocalization); assay type: cell-based; conditions: normal human dermal fibroblasts, 2 days ECM, 5 μg/ml peptide, 1 hour
Protocol: Fibroblast ECM samples (FIG. 2C) were acquired with the same microscope using an oil immersion 1.45 NA 60× objective with a pixel resolution of 1024×1024.
To achieve this, normal human dermal fibroblasts (PromoCell, Heidelberg, Germany) were cultured in alpha minimum essential medium (α-MEM) with 10% fetal bovine serum (FBS) from BioWest, Nuaillé, France, and split before reaching confluence. Cells were seeded onto Fn-coated 8-well chambered coverglasses (Lab-Tek, Nalgene Nunc, Thermo Scientific, Waltham, Mass., USA) at a density of 30×10^3 cells per cm^2 and allowed to attach to the surface before medium exchange to medium containing 50 μg/ml unlabeled Fn. Cells were cultured for 48 hours. Fibronectin was then stained using a rabbit polyclonal anti-fibronectin antibody (ab23750, abcam, Cambridge, UK) and 5 μg/ml FnBPA5-Alexa488 respectively scr-FnBPA5-Alexa488 peptide for 1 hour before fixation with a 4% paraformaldehyde solution in PBS. After fixation cells were permeabilized for 10 minutes with PBS containing 0.01% Triton X-100. After a washing step samples were blocked in 4% BSA and 4% donkey serum for 1 hour at room temperature. Samples were then incubated for 1 hour with a donkey anti-rabbit Alexa 546 (Invitrogen) secondary antibody and Phalloidin-633 (Invitrogen, Carlsbad, Calif., USA). Before imaging cell nuclei were stained using DAPI. […]

N-terminal Fn fragments = N-terminal Fn fragments (Homo sapiens, UniProt P02751); conditions: literature value, Meenan et al. 2007; read-out: Kd to N-terminal Fn fragments in solution; cited from earlier work
relaxed Fn fibers = experiment: Displacement assay on manually pulled Fn fibers against FnBPA5-Alexa488; assay type: binding, human; conditions: cold labeled competitor
Protocol: Relaxed Fn fibers were incubated with FnBPA5-Alexa488 peptide, washed and then incubated with different concentrations of FnBPA5-In to measure the concentration of competitor.
To assess whether the presence of the chelator for the radiolabeled ^111In-isotope impairs FnBPA5 binding to manually pulled Fn fibers, a displacement assay was performed using ^natIn-FnBPA5 (cold labeled) against FnBPA5-Alexa488.

[6] = 96 hours post injection, 12 MBq, tail vein
[7] = 96 hours post injection, kidneys removed

Chain of manually pulled relaxed Fn fibers (fibrillar Fn) (P02751 32-290 limits assumed): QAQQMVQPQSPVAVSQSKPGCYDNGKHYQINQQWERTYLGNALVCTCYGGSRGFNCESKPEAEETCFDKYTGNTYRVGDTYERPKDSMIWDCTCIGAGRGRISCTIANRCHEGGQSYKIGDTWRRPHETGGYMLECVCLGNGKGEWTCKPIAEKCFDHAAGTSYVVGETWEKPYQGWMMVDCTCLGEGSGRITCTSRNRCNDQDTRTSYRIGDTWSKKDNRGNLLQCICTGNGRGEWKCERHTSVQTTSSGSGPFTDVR
Chain of fibrillar Fn in fibroblast ECM (P02751 32-290 limits assumed): as above
Chain of soluble plasma Fn (P02751 32-290 limits assumed): as above
Chain of N-terminal Fn fragments (P02751 52-272 limits assumed): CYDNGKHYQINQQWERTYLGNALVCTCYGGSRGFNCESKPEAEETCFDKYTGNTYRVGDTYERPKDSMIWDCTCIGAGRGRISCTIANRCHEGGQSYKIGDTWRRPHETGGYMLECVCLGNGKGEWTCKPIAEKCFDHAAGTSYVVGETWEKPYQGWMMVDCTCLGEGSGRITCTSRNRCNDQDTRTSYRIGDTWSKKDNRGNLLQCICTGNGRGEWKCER
Chain of relaxed Fn fibers (P02751 95-273 limits assumed): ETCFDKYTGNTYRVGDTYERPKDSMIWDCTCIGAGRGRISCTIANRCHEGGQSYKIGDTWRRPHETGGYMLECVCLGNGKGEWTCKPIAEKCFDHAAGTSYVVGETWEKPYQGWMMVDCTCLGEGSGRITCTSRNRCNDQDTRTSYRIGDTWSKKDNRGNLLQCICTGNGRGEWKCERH

Compound | SPECT/CT kidney uptake (PC-3 xenografts [2]; [6]) | SPECT/CT uptake in other organs after kidney removal (PC-3 xenografts [2]; [7]) | effect of pre-injection of unlabeled FnBPA5 on accumulation (PC-3 xenografts [3]) | SPECT/CT kidney uptake (PC-3 xenografts [2]; mouse, in vivo) | SPECT/CT uptake in other organs after kidney removal (PC-3 xenografts [2]; mouse, in vivo) | Kd (soluble plasma Fn) | binding to manually pulled Fn fibers (peptide signal) [4] | binding to fibrillar Fn in fibroblast ECM [5] | other results
CC[C@H](C)[C@H](NC(=O)CNC(=O)[C@H](CCCCN)NC(=O)[C@@H](NC(=O)[C@H](CO)NC(=O)[C@H](CCC(=O)O)NC(=O)[C@H](CCC(=O)O)NC(=O)[C@H](CC(=O)O)NC(=O)[C@H](Cc1ccccc1)NC(=O)[C@H](CCC(=O)O)NC(=O)[C@@H](NC(=O)[C@H](CC(C)C)NC(=O)[C@H](CC(N)=O)NC(=O)[C@H](CO)NC(=O)[C@H](CCC(=O)O)NC(=O)[C@@H](NC(=O)[C@@H](NC(=O)[C@@H](NC(=O)[C@H](CCC(N)=O)NC(=O)CNC(=O)CNC(=O)CNC(=O)[C@@H](N)CSC1CC(=O)N(CCNC(=O)CCC(C(=O)O)N2CCN(CC(=O)O)CCN(CC(=O)O)CC2)C1=O)C(C)C)[C@@H](C)O)[C@@H](C)O)C(C)C)[C@@H](C)O)C(=O)N[C@H](C(=O)N[C@H](C(=O)NCC(=O)N[C@@H](C)C(=O)N[C@H](C(=O)N[C@@H](CO)C(=O)N[C@@H](CC(=O)O)C(=O)N[C@@H](Cc1c[nH]cn1)C(=O)N[C@H](C(=O)N[C@H](C(=O)N[C@H](C(=O)N[C@@H](CCC(=O)O)C(=O)N[C@@H](CC(=O)O)C(=O)N[C@H](C(=O)N[C@@H](CCCCN)C(=O)O)[C@@H](C)O)C(C)C)[C@@H](C)O)[C@@H](C)O)C(C)C)[C@@H](C)O)C(C)C (stereo partly drawn) [^111In-FnBPA5, metal not drawn] (H-C(X1)GGGQVTTESNLVEFDEESTKGIVTGAVSDHTTVEDTK-OH; N-terminus and C-terminus assumed) | mainly accumulated in the kidneys | predominant uptake in tumor and liver | significant reduction in the uptake of ^111In-FnBPA5 in both liver and tumor | – | – | – | – | – | plasma stability, peptide intact ([1]; human blood plasma, 37° C., after 72 hours): still intact; tissue uptake at 1 h (in vivo; kidney accumulation, kidneys, 1 hour p.i. (maximum)): 141 ± 18.1 %ID/g; tissue uptake at 1 h (in vivo; tumor uptake, PC-3 tumor, 1 h p.i. (maximum)): 4.74 ± 0.77 %ID/g; uptake decrease in liver by blocking (PC-3 xenografts [3]; pre-injection of 100 μg unlabeled FnBPA5, 4 hour post-injection, liver): 58.2%; uptake decrease in tumor tissue by blocking (PC-3 xenografts [3]; pre-injection of 100 μg unlabeled FnBPA5, 4 hour post-injection, tumor): 35.6%
CC[C@H](C)[C@H](NC(=O)[C@@H](NC(=O)[C@H](CCC(=O)O)NC(=O)CNC(=O)[C@H](Cc1ccccc1)NC(=O)[C@H](CC(=O)O)NC(=O)[C@@H](NC(=O)[C@H](CCCCN)NC(=O)[C@@H](NC(=O)CNC(=O)[C@@H](NC(=O)[C@H](CC(C)C)NC(=O)[C@H](CC(=O)O)NC(=O)[C@H](CCC(=O)O)NC(=O)[C@H](CCC(N)=O)NC(=O)[C@H](CCC(=O)O)NC(=O)[C@H](CO)NC(=O)CNC(=O)[C@@H](N)CSC1CC(=O)N(CCNC(=O)CCC(C(=O)O)N2CCN(CC(=O)O)CCN(CC(=O)O)CC2)C1=O)[C@@H](C)O)[C@@H](C)O)C(C)C)[C@@H](C)O)C(=O)N[C@H](C(=O)N[C@H](C(=O)N[C@@H](CC(N)=O)C(=O)N[C@@H](CCC(=O)O)C(=O)N[C@@H](C)C(=O)N[C@H](C(=O)N[C@@H](CCC(=O)O)C(=O)N[C@H](C(=O)N[C@H](C(=O)N[C@H](C(=O)N[C@@H](CO)C(=O)NCC(=O)N[C@@H](CO)C(=O)N[C@H](C(=O)N[C@@H](Cc1c[nH]cn1)C(=O)NCC(=O)N[C@H](C(=O)N[C@@H](CCCCN)C(=O)N[C@H](C(=O)O)C(C)C)[C@@H](C)O)[C@@H](C)O)[C@@H](C)O)C(C)C)[C@@H](C)O)[C@@H](C)O)C(C)C)C(C)C (stereo partly drawn) [^111In-scraFnBPA5, metal not drawn, reference compound] (H-C(X1)GSEQEDLTGTKVDFGETIVVNEATETVTSGSTHGTKV-OH; N-terminus and C-terminus assumed) | – | – | no significant differences | mainly accumulated in the kidneys | no uptake into other tissues was visible | – | – | – | tissue uptake at 1 h (in vivo; kidney accumulation): 164 ± 18.9 %ID/g
Alexa 488-FnBPA5: FnBPA5 with N-terminal Alexa-488 dye ({Alexa 488}-CGGGQVTTESNLVEFDEESTKGIVTGAVSDHTTVEDTK) | – | – | – | – | – | 75 nM | – | – | –
CGGGQVTTESNLVEFDEESTKGIVTGAVSDHTTVEDTK [FnBPA5] | dominant kidney uptake | uptake in tumors and liver | – | – | – | 75 nM | specific peptide binding; also recorded: significantly higher binding; also recorded: much stronger than the scrambled control derivative | specific binding | Kd ([4]; relaxed fibers, 7% molecular strain, Alexa488-labelled peptide, Hill fit, read-out: dissociation constant Kd to manually pulled relaxed Fn fibers): 28 nM; plasma stability ([1]; 37° C., blood plasma and water, 1 hour time point): high stability; Kd (N-terminal Fn fragments): 44.2 nM
^natIn-FnBPA5: Cold labeled (natural indium) chelator-conjugated FnBPA5 (C(NODAGA′)GGGQVTTESNLVEFDEESTKGIVTGAVSDHTTVEDTK; also: natural indium complexed by chelator) | – | – | – | – | – | – | – | – | IC50 (relaxed Fn fibers): 49 nM
scraFnBPA5: Negative control of FnBPA5 with scrambled sequence (SEQ ID NO 296) (CGSEQEDLTGTKVDFGETIVVNEATETVTSGSTHGTKV) [reference compound] | – | – | – | dominant kidney uptake | does not show any specific uptake in other organs | – | within the background noise | unspecificly attached to the matrix | plasma stability [1]: high stability
